Consider 3 molecules from patent publication US20190211072A1, “TRI-AGONIST FOR THE GLu, GLP-1 AND NPY2 RECEPTORS” (Syracuse University, priority 2018, published 2019).

The target in one assay is T1, human NPY2R (Homo sapiens, UniProt P49146).
T1 construct: expressed in transfected cells; host or cells: HEK293-H188-C24 cells
T1 sequence (P49146 1-381): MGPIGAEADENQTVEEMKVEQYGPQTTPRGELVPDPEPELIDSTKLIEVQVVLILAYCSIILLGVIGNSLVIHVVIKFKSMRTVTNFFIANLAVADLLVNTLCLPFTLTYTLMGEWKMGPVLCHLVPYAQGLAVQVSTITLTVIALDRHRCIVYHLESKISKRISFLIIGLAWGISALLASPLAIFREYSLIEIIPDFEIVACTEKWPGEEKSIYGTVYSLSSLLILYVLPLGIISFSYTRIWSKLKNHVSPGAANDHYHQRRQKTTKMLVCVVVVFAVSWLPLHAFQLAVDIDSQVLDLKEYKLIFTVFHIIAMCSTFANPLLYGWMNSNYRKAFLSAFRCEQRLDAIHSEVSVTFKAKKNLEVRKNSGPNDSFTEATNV
Description: cAMP-lowering action in HEK293-H188-C24 cells transfected with NPY2R (adenosine or forskolin pre-stimulation). Type of assay: cell-based. As to conditions: BIIE0246 2 μM; adenosine 2 μM.

The next assay has as its target GluR (UniProt P30082). In words: LY2409021 block of GGP817 action in HEK293-GluR cells transduced with H188. Type of assay: cell-based. The conditions noted are these: read-out: IC50, block of GGP817 agonist action at the GluR, GGP817 300 nM. The source says:
(§1) It is increasingly evident that hybrid peptides have the capacity to stimulate multiple GPCRs that participate in metabolic homeostasis.
(§2) This was established by monitoring its ability to stimulate a 60% maximal ΔFRET in the cAMP assay.

The target in another assay is T2, GLP-1R (Homo sapiens, UniProt P43220).
T2 construct: expressed in transfected cells; host or cells: HEK293-GLP-1R cells transduced with the H188 cAMP FRET reporter
T2 sequence (P43220 24-463, species assumed): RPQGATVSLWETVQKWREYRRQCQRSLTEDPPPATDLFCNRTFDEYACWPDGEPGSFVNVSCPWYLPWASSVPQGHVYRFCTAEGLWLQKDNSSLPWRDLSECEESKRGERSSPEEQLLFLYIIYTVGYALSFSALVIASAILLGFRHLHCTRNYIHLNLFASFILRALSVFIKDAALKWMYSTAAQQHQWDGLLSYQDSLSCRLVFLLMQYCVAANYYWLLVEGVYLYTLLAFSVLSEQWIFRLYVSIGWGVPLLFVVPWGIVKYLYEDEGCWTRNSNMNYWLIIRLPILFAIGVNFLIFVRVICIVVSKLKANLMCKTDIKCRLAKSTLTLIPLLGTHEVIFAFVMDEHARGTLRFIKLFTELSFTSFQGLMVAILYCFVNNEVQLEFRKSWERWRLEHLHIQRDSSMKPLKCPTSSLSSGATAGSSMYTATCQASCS
Description: LY2409021 block of GGP817 action in HEK293-GLP-1R cells transduced with H188. Type of assay: cell-based.
Text: as §1, §2

For assay [1], the target named is T3, human neuropeptide Y2 receptor (NPY2R) (human, UniProt P49146).
T3 sequence: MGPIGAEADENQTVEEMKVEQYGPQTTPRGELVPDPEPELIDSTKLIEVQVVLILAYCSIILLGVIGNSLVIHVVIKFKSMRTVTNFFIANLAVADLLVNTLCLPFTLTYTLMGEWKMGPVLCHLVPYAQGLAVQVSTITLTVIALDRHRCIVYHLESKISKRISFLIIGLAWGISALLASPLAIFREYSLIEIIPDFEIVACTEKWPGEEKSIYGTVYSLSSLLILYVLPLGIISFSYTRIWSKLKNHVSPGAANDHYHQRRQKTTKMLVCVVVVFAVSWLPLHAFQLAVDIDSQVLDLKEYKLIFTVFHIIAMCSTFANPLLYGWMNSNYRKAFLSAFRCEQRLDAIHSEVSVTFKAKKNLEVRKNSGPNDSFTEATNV
Description: cell-based or functional assay.

As for `N=C(N)NCCC[C@H](NC(=O)CC1(CC(=O)N2CCN(C3c4ccccc4NC(=O)c4ccccc43)CC2)CCCC1)C(=O)NCCn1c(=O)n(-c2ccccc2)n(-c2ccccc2)c1=O` (stereo partly shown) [BIIE0246], the “effect of antagonist on the cAMP-lowering action of GGP817” value on human NPY2R is recorded as “blocked”.

What is called IC50 is the concentration at which inhibition is half-maximal. In the case of `Cc1cc(O[C@@H](CCC(F)(F)F)c2ccc(C(=O)NCCC(=O)O)cc2)cc(C)c1-c1ccc(C(C)(C)C)cc1` [LY2409021], the IC50 was 908 nM at GluR and 1600 nM against GLP-1R.

On to HSQGTFTSDYSKYLDSRRAQDFVQWLMNTRHYLNLVTRQRY (C-terminal amide (-NH2)) [GGP817], for which the “EC50 of NPY2 receptor agonism (H188 FRET)” value in assay [1] is about 3000 nM.
